Results published in article PMC7870753, “Population pharmacokinetics of ATR inhibitor berzosertib in phase I studies for different cancer types” (Cancer Chemotherapy and Pharmacology, 2020).
Where two headings read alike, the source gives them in different places.

Columns and labels:
[1] = test system: pancreatic cancer xenografts; design: method as in PMID 23222511, PMID 22825331; conditions: after radiation and gemcitabine-based chemoradiation; cited from earlier work
CYP3A4 = conditions: based on in vitro data; cited from earlier work
pancreatic cancer cells = test system: pancreatic cancer cells; design: method as in PMID 23222511, PMID 22825331; conditions: pancreatic cancer cells vs normal cells; cited from earlier work
p-Chk1 = test system: p-Chk1; design: method as in earlier work; conditions: cited from earlier work
[2] = cited from earlier work
[3] = Population PK analysis (non-linear mixed-effect, two-compartment linear model) of berzosertib plasma concentrations, Studies 001 and 002; format: in vivo; conditions: for cov (Q, V2) / cov (V1, Q) / cov (V1, V2): covariance; for clearance: human, plasma, read-out: Clearance CL (converted)
Procedure: Longitudinal berzosertib plasma concentration and dosing data from the two phase I clinical trials, described above, were available for the analysis. The studies were performed in accordance with the Declaration of Helsinki; all participants provided written informed consent before blood samples were collected.
Study 001 (Online Resource Figure S1) was a phase I, open-label, first-in-human multiple ascending dose study to investigate the safety, tolerability, and PK of berzosertib alone and in combination with cytotoxic chemotherapy in patients with advanced solid tumors. The RP2D or maximum tolerated dose was determined in dose escalation parts A and B with further evaluation of safety and efficacy in expansion cohorts (parts C1–3). PK data were available from 170 patients who received twice-weekly 1-h intravenous infusions of berzosertib (18–210 mg/m^2) during a 7–14-day monotherapy lead-in. This preceded combination with chemotherapies, administered on day 1, and berzosertib administered on days 2 and 9 every 21 days following (1) gemcitabine, or cisplatin and gemcitabine (54 patients, Part A); (2) cisplatin (29 patients, Part B); (3) gemcitabine in patients with non-small cell lung cancer (NSCLC; 36 patients, Part C1); (4) cisplatin in patients with triple-negative breast cancer (TNBC) basaloid subtype and BRCA wild type (37 patients, Part C2); cisplatin or carboplatin in patients with platinum-resistant small cell lung cancer (SCLC; 14 patients, Part C3). Berzosertib was also evaluated in combination with irinotecan in a subsequent study cohort (Part B2). In Study 001, Parts A and B, rich PK sampling (pre-dose, 0.5, 1 h (end of infusion), 1.5, 2, 4, 8, 24, 48, and 72 h after the start of infusion) was performed for most patients following berzosertib monotherapy in the lead-in. Similar rich PK sampling was conducted on cycle 1 days 2 through 5 after the first dose of berzosertib in combination with other agents in study parts A and B or during dose escalation. Additional sparse samples (pre-dose and 2 h after the end of infusion) were taken during cycle 1, day 9 and cycle 2, day 2. In the expansion cohorts Parts C1, C2, and C3, limited PK sampling was performed on cycle 1 day 2: pre-dose, 0.5, 1 h (end of infusion), 1.5, 2, 4, and (optionally) 8 h after the start of infusion. Similar sampling was performed on cycle 1, day 9 on a portion of the participants before being removed by amendment.
Study 002 (Online Resource Figure S1) was a phase I, open-label, multiple ascending dose study to investigate the safety, tolerability, and PK/PD profile of berzosertib as a single agent and in combination with carboplatin or carboplatin and paclitaxel in patients with advanced solid tumors. PK data were available from 70 patients who received 1-h intravenous infusions of berzosertib (1) as a single agent once weekly (11 patients, Part A1); (2) as a single agent twice weekly (6 patients, Part A2); (3) on days 2 and 9 every 21 days following carboplatin on day 1 (23 patients, Part B1); (4) on days 2 and 9 every 21 days following carboplatin and paclitaxel on day 1 (15 patients, Part B2); (5) on days 2 and 9 following carboplatin on day 1 every 21 days in patients with advanced solid tumors and lymphoma with defects in the DDR (15 patients, Part C). In Study 002, in all study parts, rich PK sampling (pre-dose, 0.5, 1 h (end of infusion), 1.5, 2, 4, 8, 24, and 48 h after start of infusion) was performed after the first dose of berzosertib. In Part A1, additional sparse samples (pre-dose, 0.5–2 h after the end of infusion) were collected on cycle 1, day 8 and day 15. […]

[4] = test system: acute myeloid leukemia cells; design: method as in PMID 29789314; conditions: in combination with gemcitabine; cited from earlier work
[5] = test system: patient-derived non-small cell lung tumor xenografts; design: method as in PMID 25010037; conditions: multiple patient-derived non-small cell lung tumor xenografts; cited from earlier work
[6] = cited from earlier work; remark: listed apart in the source
acute myeloid leukemia = test system: acute myeloid leukemia; design: method as in PMID 29789314; conditions: orthotopic mouse model, in combination with gemcitabine; cited from earlier work
[7] = full covariate model, typical patient, intravenous infusion

CNCc1ccc(-c2cc(-c3nc(-c4ccc(S(=O)(=O)C(C)C)cc4)cnc3N)on2)cc1 [berzosertib, 5-(4-(Isopropylsulfonyl)phenyl)-3-(3-(4-((methylamino)methyl)phenyl)isoxazol-5-yl)pyrazin-2-amine]
growth delay of xenografts [1]: markedly prolonged growth delay
normal cell or tissue toxicity [1]: without augmenting normal cell or tissue toxicity
elimination via metabolism, enzyme (CYP3A4): mainly mediated by CYP3A4
sensitization to radiation and/or gemcitabine (pancreatic cancer cells): selectively sensitized pancreatic cancer cells but not normal cells
total plasma concentration needed to reach 50% of maximal inhibition (IC50) of p-Chk1 in humans (p-Chk1; estimated from multiple preclinical tumor models with carboplatin, irinotecan, cisplatin or gemcitabine, adjusted for species differences in plasma protein binding): approximately 110 ng/mL
inhibition of p-Chk1 (p-Chk1; tumor-bearing mice, in combination with various chemotherapies): dose-dependent inhibition of p-Chk1
recommended phase II dose (RP2D) ([2]; days 2 and 9 following 75 mg/m^2 cisplatin (day 1)): 140 mg/m^2
recommended phase II dose (RP2D) ([2]; days 2 and 9 following 1000 mg/m^2 gemcitabine (days 1 and 8)): 210 mg/m^2
recommended phase II dose (RP2D) ([2]; days 2 and 9 following carboplatin AUC 5 (day 1)): 90 mg/m^2
Additive residual error ([3]; base model): 1.9 ng/mL
Central volume V1 ([3]; base model): 111 L
Peripheral volume V2 ([3]; base model): 861 L
Proportional residual error [sd] ([3]; base model): 0.22
cov (Q, V2) ([3]; base model): 0.089
cov (V1, Q) ([3]; base model): 0.26
cov (V1, V2) ([3]; base model): 0.093
IIV on V1 [var] ([3]; base model, variance): 0.38
IIV on Q [var] ([3]; base model, variance, first line so headed (r14)): 0.24
IIV on Q [var] ([3]; base model, variance, second line so headed (r16)): 0.071
PK interaction with evaluated chemo-combinations ([3]; berzosertib with gemcitabine, cisplatin, carboplatin, paclitaxel combinations): no evidence of a clinically significant PK interaction
V1 lower in female patients than in male patients ([3]; female vs male patients): 15.8%
Additive residual error ([3]; full covariate model): 1.73 ng/mL
Proportional residual error [sd] ([3]; full covariate model): 0.22
cov (Q, V2) ([3]; full covariate model): 0.090
cov (V1, Q) ([3]; full covariate model): 0.25
cov (V1, V2) ([3]; full covariate model): 0.081
Central volume V1 [3, 7]: 118 L
Peripheral volume V2 [3, 7]: 1030 L
IIV on Q [var] ([3]; full covariate model, variance): 0.24
IIV on V1 [var] ([3]; full covariate model, variance): 0.32
IIV on V2 [var] ([3]; full covariate model, variance): 0.047
increase for V1 ([3]; high extreme of albumin): 18%
median increase in CL ([3]; high extreme of body weight): 12%
median increase in V1 ([3]; high extremes of tumor size at baseline): 24%
clearance ([3]; intravenous, base model): 933 mL/min
clearance ([3]; full covariate model, typical patient, intravenous infusion, 240 patients, 18–480 mg/m^2): 1080 mL/min
median decrease for V2 ([3]; low extreme of age): 16.7%
median decrease for V1 ([3]; low extreme of albumin): 28.6%
decrease in CL ([3]; low extreme of body weight): 9%
higher CL in patients with TNBC ([3]; patients with TNBC vs female patients with other tumor types): 42%
sensitization of cells [4]: acutely sensitized acute myeloid leukemia cells
efficacy in combination with cisplatin [5]: dramatically enhanced the efficacy of cisplatin
PK linearity over the dose range ([6]; 18–480 mg/m^2): linear
renal excretion ([6]; Study 001): 5–6%
terminal half-life ([6]; patients, intravenous, 18–480 mg/m^2): approximately 17 h
survival (acute myeloid leukemia): increased survival
